This note sets out measurements from patent US20250154212A1, “METHOD OF DISRUPTING MEMORY AND LIPOPEPTIDE FOR USE IN SUCH METHOD” (The Research Foundation for The State University of New York, priority 2023, published 2025).

The experiment addresses T1, KIBRA-PKMζ[PKCι/λ-P291Q;F297S] interaction (Homo sapiens, UniProt Q05513, F480S/P474Q).
T1 construct: expressed in transfected cells; host or cells: HEK293T
T1 sequence (Q05513 184-592 P474Q/F480S): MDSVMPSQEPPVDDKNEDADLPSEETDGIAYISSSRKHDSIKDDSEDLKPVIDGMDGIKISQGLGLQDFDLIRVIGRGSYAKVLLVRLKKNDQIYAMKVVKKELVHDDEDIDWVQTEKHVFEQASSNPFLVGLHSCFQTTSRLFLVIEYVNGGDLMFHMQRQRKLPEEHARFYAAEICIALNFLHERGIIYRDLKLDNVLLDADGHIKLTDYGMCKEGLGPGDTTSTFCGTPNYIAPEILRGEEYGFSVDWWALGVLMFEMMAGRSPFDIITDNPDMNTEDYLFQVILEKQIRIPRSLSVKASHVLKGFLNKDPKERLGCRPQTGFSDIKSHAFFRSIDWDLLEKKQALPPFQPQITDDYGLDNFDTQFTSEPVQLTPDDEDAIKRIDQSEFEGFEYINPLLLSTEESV
Kind of experiment: BiFC assay of KIBRA with mutant PKMζ[PKCι/λ-P291Q;F297S] in HEK293T cells. In kind it is cell-based. The note with it: 10 μM. On the procedure:
KIBRA-PKMζ BiFC was performed as previously described (28), using pVen1-FLAG-KIBRA and pVen2-HA-PKMζ, in which PKMζ was cloned between EcoR1 and BamH1 sites. The constructs pVen1 and pVen2 encode the N-terminus (amino acids 1-154) and C-terminus (amino acids 155-238) of the Venus protein, respectively, and the Venus fragments were on the N-terminal of the fusion proteins. pVen2-HA-PKMζ[PKCι/λ-P291Q;F297S] was generated by site-directed mutagenesis using forward-cctggagAagcAAatceggatcccccggtCcctgtccgte and reverse-gacggacaggGaccgggggatccggatTTgctTctccagg primers and the QuickChange II XL Site-Directed Mutagenesis Kit (Agilent Technologies), following manufacturer's instructions. Additional pVen2-HA-PKC isoforms and pVen2-HA-CaMKIIα in the pVen2-HA vector were generated by cloning the N-terminus of the coding sequence of each kinase (table S1) to obtain an in-frame fusion at the C-terminus of the pVen2-HA. Human versions of KIBRA and kinases were used, and all PCR amplified sequences and constructs were verified by DNA sequencing.
HEK293T cells were cultured in Dulbecco's Modified Eagle's Medium supplemented with 10% heat-inactivated fetal bovine serum, 100 U/ml penicillin, […] streptomycin, 2 mM glutamine, and 10 mM HEPES in a T75 tissue culture flask with canted neck and ventilated cap. […]

For the compound `O=S(=O)(O)c1cc(O)c2c(S(=O)(=O)O)cc(S(=O)(=O)O)cc2c1` [ζ-stat, 1-naphthol-3,6,8-trisulphonic acid], the “effect on KIBRA interaction with mutated PKMζ[PKCι/λ-P291Q;F297S] (BiFC)” value is recorded as “does not inhibit”. The “effect on KIBRA interaction with mutated PKMζ[PKCι/λ-P291Q;F297S] (BiFC)” value (listed as z-stat) is “has no effects”.
